Source: ChEMBL document CHEMBL1255313 (Antimicrob Agents Chemother, 2008)

Assays:
[1] = tested on: Homo sapiens; experiment: AUC (0 to infinity) in healthy human plasma assessed as hydroxybupropion level at 150 mg, po co-treated with ritonavir 200 mg tid for 1 day, 300 mg bid for next 2 days measured after 48 hrs; type: ADME, organism-based; parameters: dose 150 mg, time infinity, route oral; settings: in vivo
[2] = tested on: Homo sapiens; experiment: AUC (0 to infinity) in healthy human plasma assessed as hydroxybupropion level at 150 mg, po co-treated with ritonavir 200 mg tid for 1 day, 300 mg bid for next 6 days, 400 mg bid upto 17 day of study measured after 48 hrs; type: ADME, organism-based; parameters: dose 150 mg, route oral, time infinity; settings: in vivo
[3] = tested on: Homo sapiens; experiment: Tmax in healthy human plasma assessed as hydroxybupropion level at 150 mg, po co-treated with ritonavir 200 mg tid for 1 day, 300 mg bid for next 2 days measured after 48 hrs; type: ADME, organism-based; settings: in vivo
[4] = tested on: Homo sapiens; experiment: Tmax in healthy human plasma assessed as hydroxybupropion level at 150 mg, po co-treated with ritonavir 200 mg tid for 1 day, 300 mg bid for next 6 days, 400 mg bid upto 17 day of study measured after 48 hrs; type: ADME, organism-based; settings: in vivo
[5] = tested on: Homo sapiens; experiment: AUC (0 to 72) in healthy human plasma assessed as hydroxybupropion level at 150 mg, po co-treated with ritonavir 200 mg tid for 1 day, 300 mg bid for next 2 days measured after 48 hrs; type: ADME, organism-based; parameters: time < 72 hr, dose 150 mg, route oral; settings: in vivo, 72 h
[6] = tested on: Homo sapiens; experiment: AUC (0 to 72) in healthy human plasma assessed as hydroxybupropion level at 150 mg, po co-treated with ritonavir 200 mg tid for 1 day, 300 mg bid for next 6 days, 400 mg bid upto 17 day of study measured after 48 hrs; type: ADME, organism-based; parameters: dose 150 mg, time < 72 hr, route oral; settings: in vivo, 72 h
[7] = tested on: Homo sapiens; experiment: AUC (0 to 72) in healthy human plasma assessed as (R,R)-hydroxybupropion level at 150 mg, po co-treated with ritonavir 200 mg tid for 1 day, 300 mg bid for next 2 days measured after 48 hrs by high-performance liquid chromatography-tandem mass spectrometry; type: ADME, organism-based; parameters: time < 72 hr, dose 150 mg, route oral; settings: in vivo, 72 h
[8] = tested on: Homo sapiens; experiment: AUC (0 to 72) in healthy human plasma assessed as (R,R)-hydroxybupropion level at 150 mg, po co-treated with ritonavir 200 mg tid for 1 day, 300 mg bid for next 6 days, 400 mg bid upto 17 day of study measured after 48 hrs by high-performance liquid chromatography-tandem mass spectrometry; type: ADME, organism-based; parameters: dose 150 mg, time < 72 hr, route oral; settings: in vivo, 72 h
[9] = tested on: Homo sapiens; experiment: AUC (0 to infinity) in healthy human plasma assessed as (R,R)-hydroxybupropion level at 150 mg, po co-treated with ritonavir 200 mg tid for 1 day, 300 mg bid for next 2 days measured after 48 hrs by high-performance liquid chromatography-tandem mass spectrometry; type: ADME, organism-based; parameters: dose 150 mg, time infinity, route oral; settings: in vivo
[10] = tested on: Homo sapiens; experiment: AUC (0 to infinity) in healthy human plasma assessed as (R,R)-hydroxybupropion level at 150 mg, po co-treated with ritonavir 200 mg tid for 1 day, 300 mg bid for next 6 days, 400 mg bid upto 17 day of study measured after 48 hrs by high-performance liquid chromatography-tandem mass spectrometry; type: ADME, organism-based; parameters: dose 150 mg, time infinity, route oral; settings: in vivo
[11] = tested on: Homo sapiens; experiment: Tmax in healthy human plasma assessed as (R,R)-hydroxybupropion level at 150 mg, po co-treated with ritonavir 200 mg tid for 1 day, 300 mg bid for next 2 days measured after 48 hrs by high-performance liquid chromatography-tandem mass spectrometry; type: ADME, organism-based; settings: in vivo
[12] = tested on: Homo sapiens; experiment: Tmax in healthy human plasma assessed as (R,R)-hydroxybupropion level at 150 mg, po co-treated with ritonavir 200 mg tid for 1 day, 300 mg bid for next 6 days, 400 mg bid upto 17 day of study measured after 48 hrs by high-performance liquid chromatography-tandem mass spectrometry; type: ADME, organism-based; settings: in vivo
[13] = tested on: Homo sapiens; experiment: AUC (0 to 72) in healthy human plasma assessed as (S,S)-hydroxybupropion level at 150 mg, po co-treated with ritonavir 200 mg tid for 1 day, 300 mg bid for next 2 days measured after 48 hrs by high-performance liquid chromatography-tandem mass spectrometry; type: ADME, organism-based; parameters: dose 150 mg, time < 72 hr, route oral; settings: in vivo, 72 h
[14] = tested on: Homo sapiens; experiment: AUC (0 to 72) in healthy human plasma assessed as (S,S)-hydroxybupropion level at 150 mg, po co-treated with ritonavir 200 mg tid for 1 day, 300 mg bid for next 6 days, 400 mg bid upto 17 day of study measured after 48 hrs by high-performance liquid chromatography-tandem mass spectrometry; type: ADME, organism-based; parameters: dose 150 mg, time < 72 hr, route oral; settings: in vivo, 72 h
[15] = tested on: Homo sapiens; experiment: AUC (0 to infinity) in healthy human plasma assessed as (S,S)-hydroxybupropion level at 150 mg, po co-treated with ritonavir 200 mg tid for 1 day, 300 mg bid for next 2 days measured after 48 hrs by high-performance liquid chromatography-tandem mass spectrometry; type: ADME, organism-based; parameters: dose 150 mg, time infinity, route oral; settings: in vivo
[16] = tested on: Homo sapiens; experiment: AUC (0 to infinity) in healthy human plasma assessed as (S,S)-hydroxybupropion level at 150 mg, po co-treated with ritonavir 200 mg tid for 1 day, 300 mg bid for next 6 days, 400 mg bid upto 17 day of study measured after 48 hrs by high-performance liquid chromatography-tandem mass spectrometry; type: ADME, organism-based; parameters: dose 150 mg, time infinity, route oral; settings: in vivo
[17] = AUC in healthy human plasma at 400 mg, po bid for 2 weeks; type: ADME, organism-based
[18] = AUC in healthy human plasma at 100 mg, po bid for 2 weeks; type: ADME, organism-based
[19] = Apparent renal clearance in human at 150 mg, po co-treated with ritonavir 200 mg tid for 1 day, 300 mg bid for next 2 days using 0-48 hrs urine sample; type: ADME, organism-based; settings: read-out: CL_renal
[20] = Apparent renal clearance in human at 150 mg, po co-treated with ritonavir 200 mg tid for 1 day, 300 mg bid for next 6 days, 400 mg bid upto 17 day of study using 0-48 hrs urine sample; type: ADME, organism-based; settings: read-out: CL_renal
[21] = tested on: Homo sapiens; experiment: Apparent renal clearance in human assessed as Hydroxybupropion at 150 mg, po co-treated with ritonavir 200 mg tid for 1 day, 300 mg bid for next 2 days using 0-48 hrs urine sample; type: ADME, organism-based; settings: in vivo
[22] = tested on: Homo sapiens; experiment: Apparent renal clearance in human assessed as Hydroxybupropion at 150 mg, po co-treated with ritonavir 200 mg tid for 1 day, 300 mg bid for next 6 days, 400 mg bid upto 17 day of study using 0-48 hrs urine sample; type: ADME, organism-based; settings: in vivo
[23] = tested on: Homo sapiens; experiment: Apparent renal clearance in human assessed as (R,R)-Hydroxybupropion at 150 mg, po co-treated with ritonavir 200 mg tid for 1 day, 300 mg bid for next 2 days using 0-48 hrs urine sample by high-performance liquid chromatography-tandem mass spectrometry; type: ADME, organism-based; settings: in vivo
[24] = tested on: Homo sapiens; experiment: Apparent renal clearance in human assessed as (R,R)-Hydroxybupropion at 150 mg, po co-treated with ritonavir 200 mg tid for 1 day, 300 mg bid for next 6 days, 400 mg bid upto 17 day of study using 0-48 hrs urine sample by high-performance liquid chromatography-tandem mass spectrometry; type: ADME, organism-based; settings: in vivo
[25] = tested on: Homo sapiens; experiment: Apparent renal clearance in human assessed as (S,S)-Hydroxybupropion at 150 mg, po co-treated with ritonavir 200 mg tid for 1 day, 300 mg bid for next 2 days using 0-48 hrs urine sample by high-performance liquid chromatography-tandem mass spectrometry; type: ADME, organism-based; settings: in vivo
[26] = tested on: Homo sapiens; experiment: Apparent renal clearance in human assessed as (S,S)-Hydroxybupropion at 150 mg, po co-treated with ritonavir 200 mg tid for 1 day, 300 mg bid for next 6 days, 400 mg bid upto 17 day of study using 0-48 hrs urine sample by high-performance liquid chromatography-tandem mass spectrometry; type: ADME, organism-based; settings: in vivo
[27] = Apparent clearance with respect to oral bioavailability in human at 150 mg, po co-treated with ritonavir 200 mg tid for 1 day, 300 mg bid for next 6 days, 400 mg bid upto 17 day of study measured after 48 hrs; type: ADME, organism-based; settings: in vivo
[28] = AUC (0 to infinity) in healthy human plasma at 150 mg, po co-treated with ritonavir 200 mg tid for 1 day, 300 mg bid for next 6 days, 400 mg bid upto 17 day of study measured after 48 hrs; type: ADME, organism-based; parameters: dose 150 mg, time infinity, route oral
[29] = Apparent clearance with respect to oral bioavailability in human at 150 mg, po co-treated with ritonavir 200 mg tid for 1 day, 300 mg bid for next 2 days measured after 48 hrs; type: ADME, organism-based; settings: in vivo
[30] = AUC (0 to infinity) in healthy human plasma at 150 mg, po co-treated with ritonavir 200 mg tid for 1 day, 300 mg bid for next 2 days measured after 48 hrs; type: ADME, organism-based; parameters: dose 150 mg, route oral, time infinity
[31] = tested on: Homo sapiens; experiment: Tmax in healthy human plasma assessed as (S,S)-hydroxybupropion level at 150 mg, po co-treated with ritonavir 200 mg tid for 1 day, 300 mg bid for next 2 days measured after 48 hrs by high-performance liquid chromatography-tandem mass spectrometry; type: ADME, organism-based; settings: in vivo
[32] = tested on: Homo sapiens; experiment: Tmax in healthy human plasma assessed as Tmax in healthy human plasma assessed as (S,S)-hydroxybupropion level at 150 mg, po co-treated with ritonavir 200 mg tid for 1 day, 300 mg bid for next 6 days, 400 mg bid upto 17 day of study measured after 48 hrs by high-performance liquid chromatography-tandem mass spectrometry; type: ADME, organism-based; settings: in vivo
[33] = clinical; settings: human, plasma, po
[34] = clinical; settings: human, plasma, po; remark: listed apart in the source
[35] = clinical; settings: human, plasma, po; remark: listed apart in the source
[36] = clinical; settings: human, plasma, po; remark: listed apart in the source

In the case of `CC(NC(C)(C)C)C(=O)c1cccc(Cl)c1` (racemic) [BUPROPION], the AUC [1] is reported as 11330 ng·h/mL, the AUC [2] is reported as 7560 ng·h/mL and the Tmax [3] is reported as 3.6 h. For the same compound, the Tmax [4] was 3.4 h, the AUC [5] was 8470 ng·h/mL and the AUC [6] was 6100 ng·h/mL. The AUC [7] was 8120 ng·h/mL, the AUC [8] was 5829 ng·h/mL and the AUC [9] was 10950 ng·h/mL. It also gave an AUC [10] of 7330 ng·h/mL, a Tmax [11] of 3.8 h and a Tmax [12] of 3.5 h. It also gave an AUC [13] of 356 ng·h/mL, an AUC [14] of 274 ng·h/mL and an AUC [15] of 404 ng·h/mL. The AUC [16] was 303 ng·h/mL, the AUC at 336 h [17] was 57 ng·h/mL and the AUC at 336 h [18] was 50 ng·h/mL. For the same compound, the CL renal [19] was 20 mL/min, the CL renal [20] was 21 mL/min and the CL_renal [21] was 143 mL/min. The CL_renal [22] was 183 mL/min, the CL_renal [23] was 172 mL/min and the CL_renal [24] was 217 mL/min. For the same compound, the CL_renal [25] was 96 mL/min, the CL_renal [26] was 134 mL/min and the CL/F [27] was 3240 mL/min. The AUC(0-inf) [28] was 1030 ng·h/mL, the CL/F [29] was 2470 mL/min and the AUC(0-inf) [30] was 1290 ng·h/mL. For the same compound, the Tmax [31] was 1.7 h, the Tmax [32] was 1.5 h and the half-life [33] was 17.8 h. For the same compound, the half-life [34] was 16.8 h, the Cmax [35] was 267 ng/mL and the Cmax [36] was 345 ng/mL.
